The record followed here is patent US20250171438A1 (Agios Pharmaceuticals, Inc., priority 2022, published 2025).

The experiment concerns the target T1, human PAH with the R408W mutation (Homo sapiens, UniProt P00439, R408W).
T1 construct: expressed in transfected cells
T1 sequence (P00439 1-452 R408W): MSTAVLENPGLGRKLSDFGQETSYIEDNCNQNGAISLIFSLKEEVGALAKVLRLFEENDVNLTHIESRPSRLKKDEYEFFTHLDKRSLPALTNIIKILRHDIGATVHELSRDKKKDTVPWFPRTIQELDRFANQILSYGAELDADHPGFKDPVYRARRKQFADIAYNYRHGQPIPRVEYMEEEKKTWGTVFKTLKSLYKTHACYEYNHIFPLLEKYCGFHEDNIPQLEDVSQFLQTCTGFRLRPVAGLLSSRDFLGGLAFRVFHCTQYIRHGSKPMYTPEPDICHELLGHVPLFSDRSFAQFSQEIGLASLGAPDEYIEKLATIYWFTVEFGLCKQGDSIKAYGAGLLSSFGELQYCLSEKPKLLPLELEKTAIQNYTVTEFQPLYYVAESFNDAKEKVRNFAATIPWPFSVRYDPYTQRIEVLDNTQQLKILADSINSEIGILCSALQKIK
Nature of the experiment: Cell Based Phenylalanine Flux Assay. The note with it: A375 cells expressing human R408W PAH; 24 hrs compound incubation; 13C-Tyrosine by LC-MS; average where tested multiple times; read-out: AC50.

Bounds are passed on as bounds.

`O=C(c1nc2ccccc2o1)N1CCc2[nH]cnc2[C@H]1c1nc2ccccc2[nH]1` [Example 999, (S)-(4-(1H-benzo[d]imidazol-2-yl)-6,7-dihydro-1H-imidazo[4,5-c]pyridin-5(4H)-yl)(benzo[d]oxazol-2-yl)methanone]: the AC50 was in the range of 1000 to 5000 nM.
As for `O=C(CC1CC1)N1CCc2[nH]cnc2[C@@H]1c1nc2ccccc2[nH]1` [Example 1000, (R)-1-(4-(1H-benzo[d]imidazol-2-yl)-6,7-dihydro-1H-imidazo[4,5-c]pyridin-5(4H)-yl)-2-cyclopropylethanone], the AC50 is 1000 to 5000 nM.
As for `O=C(c1nc2ccccc2s1)N1CCc2[nH]cnc2[C@H]1c1nc2ccccc2s1` [Example 1001, (S)-benzo[d]thiazol-2-yl(4-(benzo[d]thiazol-2-yl)-6,7-dihydro-1H-imidazo[4,5-c]pyridin-5(4H)-yl)methanone], the AC50 lay in the range of 500 to 1000 nM.
As to `O=C(c1nc2ccccc2s1)N1CCc2[nH]cnc2[C@@H]1c1nc2ccccc2s1` [Example 1002, (R)-benzo[d]thiazol-2-yl(4-(benzo[d]thiazol-2-yl)-6,7-dihydro-1H-imidazo[4,5-c]pyridin-5(4H)-yl)methanone], the AC50 lay in the range of 1000 to 5000 nM.
In the case of `O=C(CCc1nccs1)N1CCc2[nH]cnc2[C@H]1c1nc2ccccc2s1` [Example 1003], the AC50 was 500 to 1000 nM.
`O=C(CCc1nccs1)N1CCc2nc[nH]c2[C@@H]1c1nc2ccccc2s1` [Example 1004, (R)-1-(4-(benzo[d]thiazol-2-yl)-6,7-dihydro-3H-imidazo[4,5-c]pyridin-5(4H)-yl)-3-(thiazol-2-yl)propan-1-one]: the AC50 was 1000 to 5000 nM.
`O=C(CCc1ccc(F)cc1)N1CCc2[nH]cnc2[C@H]1c1nc2ccccc2s1` [Example 1005]: the AC50 is 500 to 1000 nM.
Take `O=C(CCc1ccc(F)cc1)N1CCc2[nH]cnc2[C@@H]1c1nc2ccccc2s1` [Example 1006, (R)-1-(4-(benzo[d]thiazol-2-yl)-6,7-dihydro-1H-imidazo[4,5-c]pyridin-5(4H)-yl)-3-(4-fluorophenyl)propan-1-one]: the AC50 is above 5000 nM.
To `O=C(c1nccs1)N1CCc2[nH]cnc2[C@H]1c1nc2ccccc2s1` [Example 1007] belongs below 500 nM; to `O=C(c1nccs1)N1CCc2[nH]cnc2[C@@H]1c1nc2ccccc2s1` [Example 1008, (R)-(4-(benzo[d]thiazol-2-yl)-6,7-dihydro-1H-imidazo[4,5-c]pyridin-5(4H)-yl)(thiazol-2-yl)methanone], above 5000 nM; to `O=C(c1cnn2ccccc12)N1CCc2[nH]cnc2[C@H]1c1nc2ccccc2s1` [Example 1009], below 500 nM.
As to `O=C(c1cnn2ccccc12)N1CCc2[nH]cnc2[C@@H]1c1nc2ccccc2s1` [Example 1010, (R)-(4-(benzo[d]thiazol-2-yl)-6,7-dihydro-1H-imidazo[4,5-c]pyridin-5(4H)-yl)(pyrazolo[1,5-a]pyridin-3-yl)methanone], the AC50 was 1000 to 5000 nM.
Consider `COc1cccc(/C=C/C(=O)N2CCc3[nH]cnc3[C@H]2c2nc3ccccc3s2)c1` [Example 1011], for which the AC50 fell in the range of 500 to 1000 nM.
To `COc1cccc(/C=C/C(=O)N2CCc3[nH]cnc3[C@@H]2c2nc3ccccc3s2)c1` [Example 1012, (R,E)-1-(4-(benzo[d]thiazol-2-yl)-6,7-dihydro-1H-imidazo[4,5-c]pyridin-5(4H)-yl)-3-(3-methoxyphenyl)prop-2-en-1-one] belongs above 5000 nM; to `COc1cccc(CCCC(=O)N2CCc3[nH]cnc3[C@H]2c2nc3ccccc3s2)c1` [Example 1013], 500 to 1000 nM; to `COc1cccc(CCCC(=O)N2CCc3[nH]cnc3[C@@H]2c2nc3ccccc3s2)c1` [Example 1014, (R)-1-(4-(benzo[d]thiazol-2-yl)-6,7-dihydro-1H-imidazo[4,5-c]pyridin-5(4H)-yl)-4-(3-methoxyphenyl)butan-1-one], above 5000 nM.
As for `O=C(CCC1CCCC1)N1CCc2[nH]cnc2[C@H]1c1nc2ccccc2s1` [Example 1015], the AC50 was 500 to 1000 nM.
Turning to `O=C(CCC1CCCC1)N1CCc2[nH]cnc2[C@@H]1c1nc2ccccc2s1` [Example 1016, (R)-1-(4-(benzo[d]thiazol-2-yl)-6,7-dihydro-1H-imidazo[4,5-c]pyridin-5(4H)-yl)-3-cyclopentylpropan-1-one], the AC50 lay in the range of 1000 to 5000 nM.
On to `Cc1nnc(CCC(=O)N2CCc3[nH]cnc3[C@H]2c2nc3ccccc3s2)s1` [Example 1019], for which the AC50 lay in the range of 500 to 1000 nM.
`Cc1nnc(CCC(=O)N2CCc3[nH]cnc3[C@@H]2c2nc3ccccc3s2)s1` [Example 1020, (R)-1-(4-(benzo[d]thiazol-2-yl)-6,7-dihydro-1H-imidazo[4,5-c]pyridin-5(4H)-yl)-3-(5-methyl-1,3,4-thiadiazol-2-yl)propan-1-one]: the AC50 was above 5000 nM.
In the case of `O=C(CCC1CC1)N1CCc2[nH]cnc2[C@H]1c1nc2ccccc2s1` [Example 1021], the AC50 is below 500 nM.
On to `O=C(CCC1CC1)N1CCc2[nH]cnc2[C@@H]1c1nc2ccccc2s1` [Example 1022, (R)-1-(4-(benzo[d]thiazol-2-yl)-6,7-dihydro-1H-imidazo[4,5-c]pyridin-5(4H)-yl)-3-cyclopropylpropan-1-one], for which the AC50 is 1000 to 5000 nM.
For `O=C(CCc1nc(Cl)cs1)N1CCc2[nH]cnc2[C@H]1c1nc2ccccc2s1` [Example 1023] the value was 500 to 1000 nM.
`O=C(CCc1nc(Cl)cs1)N1CCc2[nH]cnc2[C@@H]1c1nc2ccccc2s1` [Example 1024, (R)-1-(4-(benzo[d]thiazol-2-yl)-6,7-dihydro-1H-imidazo[4,5-c]pyridin-5(4H)-yl)-3-(4-chlorothiazol-2-yl)propan-1-one]: the AC50 was above 5000 nM.
Take `O=C(CCc1ncc(Cl)s1)N1CCc2[nH]cnc2[C@H]1c1nc2ccccc2s1` [Example 1025]: the AC50 was 1000 to 5000 nM.
For `O=C(CCc1ncc(Cl)s1)N1CCc2[nH]cnc2[C@@H]1c1nc2ccccc2s1` [Example 1026, (R)-1-(4-(benzo[d]thiazol-2-yl)-6,7-dihydro-1H-imidazo[4,5-c]pyridin-5(4H)-yl)-3-(5-chlorothiazol-2-yl)propan-1-one], the AC50 lay in the range of 1000 to 5000 nM.
For the compound `O=C(c1ncn2ccccc12)N1CCc2[nH]cnc2[C@H]1c1nc2ccccc2s1` [Example 1027], the AC50 was 500 to 1000 nM.
As for `O=C(c1ncn2ccccc12)N1CCc2[nH]cnc2[C@@H]1c1nc2ccccc2s1` [Example 1028, (R)-(4-(benzo[d]thiazol-2-yl)-6,7-dihydro-1H-imidazo[4,5-c]pyridin-5(4H)-yl)(imidazo[1,5-a]pyridin-1-yl)methanone], the AC50 is above 5000 nM.
As to `O=C(CCc1nccs1)N1CCc2[nH]cnc2[C@H]1c1nc2ccc(F)cc2s1` [Example 1029, (S)-1-(4-(6-fluorobenzo[d]thiazol-2-yl)-6,7-dihydro-1H-imidazo[4,5-c]pyridin-5(4H)-yl)-3-(thiazol-2-yl)propan-1-one], the AC50 is 500 to 1000 nM.
With `O=C(CCc1nccs1)N1CCc2[nH]cnc2[C@@H]1c1nc2ccc(F)cc2s1` [Example 1030, (R)-1-(4-(6-fluorobenzo[d]thiazol-2-yl)-6,7-dihydro-1H-imidazo[4,5-c]pyridin-5(4H)-yl)-3-(thiazol-2-yl)propan-1-one], the AC50 was above 5000 nM.
In the case of `Cc1cnc(CCC(=O)N2CCc3[nH]cnc3[C@H]2c2nc3ccccc3s2)s1` [Example 1031], the AC50 lay in the range of 500 to 1000 nM.

The term AC50 denotes the midpoint of the concentration-response curve, whichever way the signal moves.
